Values of other authors as cited in paper PMC10363405 (Methods in molecular biology (Clifton, N.J.), 2022).

Target: β-tubulin
Test: fluorescence enhancement titration with crosslinked microtubules
Type: binding, Bos taurus

In the case of `CC(=O)OC1C(=O)C2(C)C(OC(=O)CCNC(=O)c3cc4cc(F)c(O)c(F)c4oc3=O)CC3OCC3(OC(C)=O)C2C(OC(=O)c2ccccc2)C2(O)CC(OC(=O)C(O)C(NC(=O)c3ccccc3)c3ccccc3)C(C)=C1C2(C)C` (stereo not drawn) [PB-β-Ala-Taxol], the Kd is given as 63 ± 8 nM.
